Laboratory results taken from patent publication US12077503B2, “Substituted cyclic amides and their use as herbicides” (FMC CORPORATION, priority 2015, dated 2024).

Legend:
Assay type in all cases: in vivo
[1] = system: wheat (Triticum aestivum); assay: Test A postemergence; details: Triticum aestivum, post-emergence, 240 h, 125 g ai/ha, Postemergence; visual injury after approximately 10 d; 0 to 100 scale where 0 is no effect and 100 is complete control; read-out: Plant response rating, Wheat
Summary of the method: (§1)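 In a loam soil and sand blend, planted seeds got a preemergence directed soil spray, and young plants at the one- to two-leaf stage, 2–10 cm high, got a postemergence application; ~10 d greenhouse hold; injury rated visually, 0 = none, 100 = complete control.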

[2] = system: giant foxtail (Setaria faberii); assay: Test A postemergence; details: Setaria faberi, post-emergence, 240 h, 125 g ai/ha, Postemergence; visual injury after approximately 10 d; 0 to 100 scale where 0 is no effect and 100 is complete control; read-out: Plant response rating, Foxtail, Giant
Summary of the method: as §1

[3] = system: pigweed (Amaranthus retroflexus); assay: Test A postemergence; details: Amaranthus retroflexus, post-emergence, 240 h, 125 g ai/ha, Postemergence; visual injury after approximately 10 d; 0 to 100 scale where 0 is no effect and 100 is complete control; read-out: Plant response rating, Pigweed
Summary of the method: as §1

[4] = system: Galium (catchweed bedstraw, Galium aparine); assay: Test A postemergence; details: Galium, post-emergence, 240 h, 125 g ai/ha, Postemergence; visual injury after approximately 10 d; 0 to 100 scale where 0 is no effect and 100 is complete control; read-out: Plant response rating, Galium
Summary of the method: as §1

[5] = system: blackgrass (Alopecurus myosuroides); assay: Test A postemergence; details: Alopecurus myosuroides, post-emergence, 240 h, 125 g ai/ha, Postemergence; visual injury after approximately 10 d; 0 to 100 scale where 0 is no effect and 100 is complete control; read-out: Plant response rating, Blackgrass
Summary of the method: as §1

Kochia (Kochia scoparia) [6] = assay: Test A postemergence; details: Bassia scoparia, post-emergence, 240 h, 125 g ai/ha, Postemergence; visual injury after approximately 10 d; 0 to 100 scale where 0 is no effect and 100 is complete control; read-out: Plant response rating, Kochia
Summary of the method: as §1

[7] = system: ryegrass, Italian (Italian ryegrass, Lolium multiflorum); assay: Test A postemergence; details: Lolium multiflorum, post-emergence, 240 h, 125 g ai/ha, Postemergence; visual injury after approximately 10 d; 0 to 100 scale where 0 is no effect and 100 is complete control; read-out: Plant response rating, Ryegrass, Italian
Summary of the method: as §1

corn (Zea mays) = assay: Test A postemergence; details: Zea mays, post-emergence, 240 h, 125 g ai/ha, Postemergence; visual injury after approximately 10 d; 0 to 100 scale where 0 is no effect and 100 is complete control
Summary of the method: as §1

[8] = system: ragweed (common ragweed, Ambrosia elatior); assay: Test A postemergence; details: Ambrosia artemisiifolia, post-emergence, 240 h, 125 g ai/ha, Postemergence; visual injury after approximately 10 d; 0 to 100 scale where 0 is no effect and 100 is complete control; read-out: Plant response rating, Ragweed
Summary of the method: as §1

[9] = system: barnyardgrass (Echinochloa crus-galli); assay: Test A postemergence; details: Echinochloa crus-galli, post-emergence, 240 h, 125 g ai/ha, Postemergence; visual injury after approximately 10 d; 0 to 100 scale where 0 is no effect and 100 is complete control; read-out: Plant response rating, Barnyardgrass
Summary of the method: as §1

[10] = system: giant foxtail (Setaria faberii); assay: Test A preemergence; details: Setaria faberi, pre-emergence, 240 h; for pest or weed control at 125 g/ha: 125 g ai/ha, Preemergence, visual injury rating after approximately 10 d, read-out: Foxtail, Giant plant response rating (0 to 100 scale, 0 is no effect, 100 is complete control); for pest or weed control at 500 g/ha: 500 g ai/ha, preemergence, visual injury rating about 10 d after treatment, 0 to 100 scale (0 no effect, 100 complete control), read-out: Foxtail, Giant plant response rating
Summary of the method: as §1

[11] = system: pigweed (Amaranthus retroflexus); assay: Test A preemergence; details: Amaranthus retroflexus, pre-emergence, 240 h; for pest or weed control at 125 g/ha: 125 g ai/ha, Preemergence, visual injury rating after approximately 10 d, read-out: Pigweed plant response rating (0 to 100 scale, 0 is no effect, 100 is complete control); for pest or weed control at 500 g/ha: 500 g ai/ha, preemergence, visual injury rating about 10 d after treatment, 0 to 100 scale (0 no effect, 100 complete control), read-out: Pigweed plant response rating
Kochia (Kochia scoparia) [12] = assay: Test A preemergence; details: Bassia scoparia, pre-emergence, 240 h; for pest or weed control at 125 g/ha: 125 g ai/ha, Preemergence, visual injury rating after approximately 10 d, read-out: Kochia plant response rating (0 to 100 scale, 0 is no effect, 100 is complete control); for pest or weed control at 500 g/ha: 500 g ai/ha, preemergence, visual injury rating about 10 d after treatment, 0 to 100 scale (0 no effect, 100 complete control), read-out: Kochia plant response rating
Summary of the method: as §1

[13] = system: ryegrass, Italian (Italian ryegrass, Lolium multiflorum); assay: Test A preemergence; details: Lolium multiflorum, pre-emergence, 240 h; for pest or weed control at 125 g/ha: 125 g ai/ha, Preemergence, visual injury rating after approximately 10 d, read-out: Ryegrass, Italian plant response rating (0 to 100 scale, 0 is no effect, 100 is complete control); for pest or weed control at 500 g/ha: 500 g ai/ha, preemergence, visual injury rating about 10 d after treatment, 0 to 100 scale (0 no effect, 100 complete control), read-out: Ryegrass, Italian plant response rating
Summary of the method: as §1

[14] = system: ragweed (common ragweed, Ambrosia elatior); assay: Test A preemergence; details: Ambrosia artemisiifolia, pre-emergence, 240 h; for pest or weed control at 125 g/ha: 125 g ai/ha, Preemergence, visual injury rating after approximately 10 d, read-out: Ragweed plant response rating (0 to 100 scale, 0 is no effect, 100 is complete control); for pest or weed control at 500 g/ha: 500 g ai/ha, preemergence, visual injury rating about 10 d after treatment, 0 to 100 scale (0 no effect, 100 complete control), read-out: Ragweed plant response rating
Summary of the method: as §1

[15] = system: barnyardgrass (Echinochloa crus-galli); assay: Test A preemergence; details: Echinochloa crus-galli, pre-emergence, 240 h; for pest or weed control at 125 g/ha: 125 g ai/ha, Preemergence, visual injury rating after approximately 10 d, read-out: Barnyardgrass plant response rating (0 to 100 scale, 0 is no effect, 100 is complete control); for pest or weed control at 500 g/ha: 500 g ai/ha, preemergence, visual injury rating about 10 d after treatment, 0 to 100 scale (0 no effect, 100 complete control), read-out: Barnyardgrass plant response rating
Summary of the method: as §1

rice (Oryra sativa) = assay: Test B flooded paddy test; details: Oryza sativa, Flood, 250 g ai/ha; scale of 0 to 100 where 0 is no effect and 100 is complete control; read-out: Rice plant response rating
Summary of the method: (§2)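 Plants at 2-leaf stage flooded to 3 cm above soil, with compounds applied directly to paddy water and that depth maintained. Plants kept in greenhouse 13–15 d. Visual rating versus controls on a 0 (no effect) to 100 (complete control) scale.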

[16] = system: ducksalad (Heteranthera limosa); assay: Test B flooded paddy test; details: Heteranthera limosa, Flood, 250 g ai/ha; scale of 0 to 100 where 0 is no effect and 100 is complete control; read-out: Ducksalad plant response rating
Summary of the method: as §2

[17] = system: sedge, umbrella (small-flower umbrella sedge, Cyperus difformis); assay: Test B flooded paddy test; details: Cyperus difformis, 250 g ai/ha, Flood; 0 to 100 scale where 0 is no effect and 100 is complete control; read-out: Sedge, Umbrella plant response rating
Summary of the method: as §2

[18] = system: barnyardgrass (Echinochloa crus-galli); assay: Test B flooded paddy test; details: Echinochloa crus-galli, Flood, 250 g ai/ha; scale of 0 to 100 where 0 is no effect and 100 is complete control; read-out: Barnyardgrass plant response rating
Summary of the method: as §2

Structure (SMILES) | plant injury at 125 g/ha [1] [%] | pest or weed control at 125 g/ha [2] [%] | pest or weed control at 125 g/ha [3] [%] | pest or weed control at 125 g/ha [4] [%] | pest or weed control at 125 g/ha [5] [%] | pest or weed control at 125 g/ha (Kochia (Kochia scoparia) [6]) [%] | pest or weed control at 125 g/ha [7] [%] | Corn plant response rating (crop injury, 0 = no effect, 100 = complete kill) at 125 g/ha (corn (Zea mays)) [%] | pest or weed control at 125 g/ha [8] [%] | pest or weed control at 125 g/ha [9] [%] | pest or weed control at 125 g/ha [10] [%] | pest or weed control at 500 g/ha [10] [%] | pest or weed control at 125 g/ha [11] [%] | pest or weed control at 500 g/ha [11] [%] | pest or weed control at 125 g/ha (Kochia (Kochia scoparia) [12]) [%] | pest or weed control at 500 g/ha (Kochia (Kochia scoparia) [12]) [%] | pest or weed control at 125 g/ha [13] [%] | pest or weed control at 500 g/ha [13] [%] | pest or weed control at 125 g/ha [14] [%] | pest or weed control at 500 g/ha [14] [%] | also measured
CN1C[C@H](c2cc(F)cc(F)c2)[C@@H](C(=O)Nc2ccc(O)cc2F)C1=O [Compound 985] | 0 | 0 | 0 | 0 | 0 | 0 | 0 | 0 | 0 | 0 | 0 | 0 | 0 | 0 | 0 | 0 | 0 | 0 | 0 | 0 | pest or weed control at 125 g/ha [15]: 0%; pest or weed control at 500 g/ha [15]: 0%; pest or weed control at 250 g/ha (rice (Oryra sativa)): 0%; pest or weed control at 250 g/ha [16]: 40%; pest or weed control at 250 g/ha [17]: 0%; pest or weed control at 250 g/ha [18]: 0%
COc1ccc([C@H]2CN(C)C(=O)[C@@H]2C(=O)Nc2cccc(F)c2F)cc1C(F)(F)F [Compound 986] | 20 | 90 | 0 | 30 | 40 | 30 | 30 | 80 | 0 | 80 | 100 | 100 | 60 | 70 | 30 | 70 | 60 | 80 | 50 | 70 | pest or weed control at 125 g/ha [15]: 90%; pest or weed control at 500 g/ha [15]: 90%; pest or weed control at 250 g/ha (rice (Oryra sativa)): 20%; pest or weed control at 250 g/ha [16]: 75%; pest or weed control at 250 g/ha [17]: 0%; pest or weed control at 250 g/ha [18]: 55%
CSc1ccccc1NC(=O)[C@H]1C(=O)N(C)C[C@@H]1c1ccc(F)c(Br)c1 [Compound 990] | 0 | 80 | 30 | 60 | 0 | 40 | 20 | 40 | 0 | 90 | 100 | 100 | 40 | 80 | 70 | 90 | 0 | 60 | 50 | 80 | pest or weed control at 125 g/ha [15]: 100%; pest or weed control at 500 g/ha [15]: 100%; pest or weed control at 250 g/ha (rice (Oryra sativa)): 55%; pest or weed control at 250 g/ha [16]: 100%; pest or weed control at 250 g/ha [17]: 0%; pest or weed control at 250 g/ha [18]: 50%
